Source: patent publication US20060264460A1 (Wyeth, priority 2005, published 2006)

These compounds were tested against T1, human Cot/Tpl2 kinase (Homo sapiens, UniProt P41279) (assay: Tpl2/Cot kinase assay: GST-MEK1 phosphorylation detected by ELISA (DELFIA Eu)). Details: 0.4 nM Tpl2, 35 nM GST-MEK1, 50 uM ATP, 1 h at 30° C.
T1 construct: human Cot/Tpl2 kinase construct encoding residues 30-398; 6His (N); made in house; host or cells: Sf9 insect cells, baculovirus system (BD Biosciences)
Assay type: biochemical
Protocol: Sf9 cells expressing the kinase were lysed in 50 mM NaPhosphate pH=8; 300 mM NaCl; 5 mM imidazole; 0.1 mM EGTA; 25 mM beta-glycerophosphate; 1% TX-100, 1% glycerol; 6 mM beta-mercaptoethanol and protease inhibitors. The lysate was clarified by centrifugation and was loaded onto a Ni-Sepharose column. The column was washed with 50 mM NaPhosphate pH=8; 300 mM NaCl; 15 mM imidazole; 1% glycerol; and 6 mM beta-mercaptoethanol. His-Tpl2 was eluted with 50 mM NaPhosphate pH=8; 300 mM NaCl; 250 mM imidazole; 1% glycerol; and 6 mM beta-mercaptoethanol. The eluted protein was further purified by size exclusion chromatography. Fractions corresponding to monomeric Tpl2 were then used in the assay.
Tpl2/Cot activity was directly assayed using GST-MEK1 as a substrate. GST-MEK1 phosphorylation on serine residues 217 and 221 was detected by ELISA. 0.4 nM Tpl2 was incubated with 35 nM GST-MEK1 in a kinase reaction buffer containing 20 mM MOPS pH=7.2; 50 uM ATP; 20 mM MgCl2; 1 mM DTT; 25 mM β-glycerophosphate; 5 mM EGTA; and 1 mM sodium orthovanadate for 1 h at 30° C. The compounds of the inventions solubilized in 100% DMSO were pre-diluted in assay buffer so that the final concentration of DMSO in the reaction was 1%. The kinase reaction was carried out in 100 ul volume on 96 well plates. The kinase reaction was then stopped with the addition of 100 mM EDTA. […] After a 1 hour incubation at room temperature, the detection plate was washed 4 times with TBST (TBS+0.05% Tween 20) and then incubated for another hour at room temperature with anti phospho-MEK1 antibody (Cell Signaling) 1:1000 in 10 mM MOPS 7.5; 150 mM NaCl; 0.05% Tween 20; 0.1% Gelatin; 0.02% NaN3; and 1% BSA. The detection plate was washed again and incubated for 30 min with DELFIA Europium (Eu) labeled goat anti-rabbit IgG (Perkin-Elmer), 1:4000 in the same buffer used for the primary incubation. After a final wash, Eu detection solution was added to each well and the Eu signal was measured in a Wallac Victor^2 Multilabel Counter. IC50 calculations were performed using the XLfit software package (IDBS, Guildford, UK).

T1 sequence (P41279 30-398): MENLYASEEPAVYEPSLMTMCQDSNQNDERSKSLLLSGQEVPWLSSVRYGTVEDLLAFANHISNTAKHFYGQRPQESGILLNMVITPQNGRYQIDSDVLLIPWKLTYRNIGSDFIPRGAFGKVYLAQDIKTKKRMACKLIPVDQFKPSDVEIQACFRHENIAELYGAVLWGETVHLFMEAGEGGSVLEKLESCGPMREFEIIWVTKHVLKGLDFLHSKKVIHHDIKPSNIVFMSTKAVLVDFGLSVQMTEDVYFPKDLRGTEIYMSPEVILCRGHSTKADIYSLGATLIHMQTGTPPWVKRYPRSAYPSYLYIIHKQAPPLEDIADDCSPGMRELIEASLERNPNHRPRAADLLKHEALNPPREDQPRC

Compound | IC50 [nM]
1-[(3-chloro-4-fluorophenyl)amino]-5-[(1E)-3-hydroxyprop-1-en-1-yl]-7-[(1H-imidazol-5-ylmethyl)amino]-2-naphthonitrile [Example 313] | 230
4-(3-Chloro-4-fluoro-phenylamino)-6-[(tetrahydro-furan-2-ylmethyl)-amino]-quinoline-3-carbonitrile [Example 41] | 2200
N#Cc1cnc2ccc(NC(=O)c3ccccc3)cc2c1Nc1ccc(F)c(Cl)c1 [Example 1, N-[4-(3-Chloro-4-fluoro-phenylamino)-3-cyano-quinolin-6-yl]-benzamide] | 11000
N#Cc1cnc2ccc(NC(=O)c3cccnc3)cc2c1Nc1ccc(F)c(Cl)c1 [Example 2, N-[4-(3-Chloro-4-fluoro-phenylamino)-3-cyano-quinolin-6-yl]-nicotinamide] | 23900
N#Cc1cnc2ccc(NCc3ccoc3)cc2c1Nc1ccc(F)c(Cl)c1 [Example 5, 4-(3-Chloro-4-fluoro-phenylamino)-6-[(furan-3-ylmethyl)-amino]-quinoline-3-carbonitrile] | 370
N#Cc1cnc2ccc(NCc3ccc(-n4ccnc4)cc3)cc2c1Nc1ccc(F)c(Cl)c1 [Example 12, 4-(3-Chloro-4-fluoro-phenylamino)-6-(4-imidazol-1-yl-benzylamino)-quinoline-3-carbonitrile] | 1300
N#Cc1ccc(CNc2ccc3ncc(C#N)c(Nc4ccc(F)c(Cl)c4)c3c2)cc1 [Example 19, 4-(3-Chloro-4-fluoro-phenylamino)-6-(4-cyano-benzylamino)-quinoline-3-carbonitrile] | 590
CN(C)c1ccc(CNc2ccc3ncc(C#N)c(Nc4ccc(F)c(Cl)c4)c3c2)c(F)c1C#N [Example 20, 4-(3-Chloro-4-fluoro-phenylamino)-6-(3-cyano-4-dimethylamino-2-fluoro-benzylamino)-quinoline-3-carbonitrile] | 610
CCc1nc(C)c(CNc2ccc3ncc(C#N)c(Nc4ccc(F)c(Cl)c4)c3c2)[nH]1 [Example 23, 4-(3-Chloro-4-fluoro-phenylamino)-6-[(2-ethyl-5-methyl-3H-imidazol-4-ylmethyl)-amino]-quinoline-3-carbonitrile] | 640
COCCOc1ccc(CNc2ccc3ncc(C#N)c(Nc4ccc(F)c(Cl)c4)c3c2)cc1Br [Example 24, 6-[3-Bromo-4-(2-methoxy-ethoxy)-benzylamino]-4-(3-chloro-4-fluoro-phenylamino)-quinoline-3-carbonitrile] | 380
CC(C)(C)OC(=O)COc1ccc(CNc2ccc3ncc(C#N)c(Nc4ccc(F)c(Cl)c4)c3c2)cc1Br [Example 26, (2-Bromo-4-{[4-(3-chloro-4-fluoro-phenylamino)-3-cyano-quinolin-6-ylamino]-methyl}-phenoxy)-acetic acid tert-butyl ester] | > 40000

Further compounds by falling IC50, results first:

IC50 [nM] | Compound
280 | CS(=O)(=O)Nc1cccc(CNc2ccc3ncc(C#N)c(Nc4ccc(F)c(Cl)c4)c3c2)c1 [Example 18, N-(3-{[4-(3-Chloro-4-fluoro-phenylamino)-3-cyano-quinolin-6-ylamino]-methyl}-phenyl)-methanesulfonamide]
240 | N#Cc1cnc2ccc(NCc3ccco3)cc2c1Nc1ccc(F)c(Cl)c1 [Example 3, 4-(3-Chloro-4-fluoro-phenylamino)-6-[(furan-2-ylmethyl)-amino]-quinoline-3-carbonitrile]
227 | CC(=O)Nc1ccc(CNc2ccc3ncc(C#N)c(Nc4ccc(F)c(Cl)c4)c3c2)cc1 [Example 16, N-(4-{[4-(3-Chloro-4-fluoro-phenylamino)-3-cyano-quinolin-6-ylamino]-methyl}-phenyl)-acetamide]
211 | N#Cc1cnc2ccc(NCc3ccc(CO)o3)cc2c1Nc1ccc(F)c(Cl)c1 [Example 9, 4-(3-Chloro-4-fluoro-phenylamino)-6-[(5-hydroxymethyl-furan-2-ylmethyl)-amino]-quinoline-3-carbonitrile]
200 | N#Cc1cnc2ccc(NCc3cccc([N+](=O)[O-])c3)cc2c1Nc1ccc(F)c(Cl)c1 [Example 6, 4-(3-Chloro-4-fluoro-phenylamino)-6-(3-nitro-benzylamino)-quinoline-3-carbonitrile]
200 | N#Cc1cccc(CNc2ccc3ncc(C#N)c(Nc4ccc(F)c(Cl)c4)c3c2)c1 [Example 10, 4-(3-Chloro-4-fluoro-phenylamino)-6-(3-cyano-benzylamino)-quinoline-3-carbonitrile]
190 | N#Cc1cnc2ccc(NCc3ccc([N+](=O)[O-])cc3)cc2c1Nc1ccc(F)c(Cl)c1 [Example 17, 4-(3-Chloro-4-fluoro-phenylamino)-6-(4-nitro-benzylamino)-quinoline-3-carbonitrile]
140 | N#Cc1cnc2ccc(NCc3cccc(N)c3)cc2c1Nc1ccc(F)c(Cl)c1 [Example 14, 6-(3-Amino-benzylamino)-4-(3-chloro-4-fluoro-phenylamino)-quinoline-3-carbonitrile]
130 | N#Cc1ccccc1CNc1ccc2ncc(C#N)c(Nc3ccc(F)c(Cl)c3)c2c1 [Example 21, 4-(3-Chloro-4-fluoro-phenylamino)-6-(2-cyano-benzylamino)-quinoline-3-carbonitrile]
123 | N#Cc1cnc2ccc(NCc3ccc([N+](=O)[O-])o3)cc2c1Nc1ccc(F)c(Cl)c1 [Example 11, 4-(3-Chloro-4-fluoro-phenylamino)-6-[(5-nitro-furan-2-ylmethyl)-amino]-quinoline-3-carbonitrile]
82 | COCCOc1ccc(CNc2ccc3ncc(C#N)c(Nc4ccc(F)c(Cl)c4)c3c2)cc1C#N [Example 25, 4-(3-Chloro-4-fluoro-phenylamino)-6-[3-cyano-4-(2-methoxy-ethoxy)-benzylamino]-quinoline-3-carbonitrile]
74 | N#Cc1cnc2ccc(NCc3cc[nH]n3)cc2c1Nc1ccc(F)c(Cl)c1 [Example 27, 4-(3-Chloro-4-fluoro-phenylamino)-6-[(1H-pyrazol-3-ylmethyl)-amino]-quinoline-3-carbonitrile]
68 | N#Cc1cnc2ccc(NCc3nccn3CCN3CCOCC3)cc2c1Nc1ccc(F)c(Cl)c1 [Example 22, 4-(3-Chloro-4-fluoro-phenylamino)-6-{[1-(2-morpholin-4-yl-ethyl)-1H-imidazol-2-ylmethyl]-amino}-quinoline-3-carbonitrile]
31 | N#Cc1cnc2ccc(NCc3nccs3)cc2c1Nc1ccc(F)c(Cl)c1 [Example 8, 4-(3-Chloro-4-fluoro-phenylamino)-6-[(thiazol-2-ylmethyl)-amino]-quinoline-3-carbonitrile]
30 | N#Cc1cnc2ccc(NCc3ncc[nH]3)cc2c1Nc1ccc(F)c(Cl)c1 [Example 13, 4-(3-Chloro-4-fluoro-phenylamino)-6-[(1H-imidazol-2-ylmethyl)-amino]-quinoline-3-carbonitrile]
18 | Cn1c(CNc2ccc3ncc(C#N)c(Nc4ccc(F)c(Cl)c4)c3c2)nc2ccccc21 [Example 7, 4-(3-Chloro-4-fluoro-phenylamino)-6-[(1-methyl-1H-benzoimidazol-2-ylmethyl)-amino]-quinoline-3-carbonitrile]
15 | Cc1[nH]cnc1CNc1ccc2ncc(C#N)c(Nc3ccc(F)c(Cl)c3)c2c1 [Example 15, 4-(3-Chloro-4-fluoro-phenylamino)-6-[(5-methyl-3H-imidazol-4-ylmethyl)-amino]-quinoline-3-carbonitrile]
